From PMC5548886 (Cancer Medicine, 2017)
Where two headings read alike, the source gives them in different places.

How the values were obtained:
[1] = Pharmacokinetics, unchanged RAF265 in plasma; format: in vivo, human; conditions: for Cmin, Mean (SD): Steady State (average of troughs from Cycle 2 Day 1 onwards); for AUC(0-t) / Cmax / Tmax / half-life: human, plasma, oral; for AUC(0-t): read-out: AUC(0-tlast), Mean (SD); for Cmax: read-out: Cmax, Mean (SD); for Tmax: read-out: Tmax, Median
Procedure: PK parameters included the maximum observed concentration (C max), time to reach C max (T max), area under the curve from time 0 to last measurable concentration (AUClast), time point of the last measurable concentration (T last), and terminal half‐life of elimination phase (T 1/2). Cycle 1 Day 1 and day 15, reported PK parameters include C max, T max, AUClast and T last. Following log‐transformation, the PK parameters AUC and C max from the PK run‐in were analyzed separately using a mixed effects model fitting terms for dose and patient (Patient treated as a random factor)‐ln(PK parameter) = a + b*ln(Dose)+error. In this model, the dose‐exposure relationship is mainly characterized by the slope parameter b. A slope lower (higher) than 1 indicates an under (over) proportional dose‐exposure relationship. The point estimate and associated 90% CI for the slope parameter were determined for safety considerations.

MITF = assay: IHC of tumor biopsies, H-score change on-treatment vs pretreatment; format: in vivo, human
Procedure: Pharmacodynamic markers were examined using peripheral blood samples, tumor and nevi biopsies (when available) and tumor imaging. BRAF mutation status was determined by Sanger sequencing. Pharmacodynamic markers analyzed, in available tumor/nevus samples obtained before treatment or archival tissue and during treatment on cycle 1, day 8 or day 15, including cytoplasmic p‐MEK, p‐ERK, BIM, c‐KIT, p‐AKT473, pS6 and PTEN, and nuclear p‐ERK, Ki‐67, PARP, cyclin D1, MITF, p27, and p53. Biomarker expression was determined by calculating the percentage of change in the H‐score (14) between on‐treatment and fresh/archival pretreatment specimens. Blood levels of VEGFR‐2 and were assessed before and at multiple time points while on treatment using enzyme‐linked immunosorbent assay (ELISA). […] Changes in standard uptake value (SUV) were determined by a blinded, independent central imaging review panel. Complete metabolic response (CMR) was complete resolution of tumor FDG‐PET uptake so SUV is the same as background. Partial metabolic response (PMR) decrease in sum of the tumor SUV of ≥25% from the baseline scan. Progressive metabolic disease (PMD) was defined as an increase in tumor SUV of ≥25% from the baseline scan, or the appearance of new FDG‐PET uptake in metastatic lesions. Stable metabolic disease (SMD) was defined as a change in tumor SUV between the PMR and PMD criteria.

[2] = 2 mg, Cycle 1 Day 15, DL 1, MD 2 mg
[3] = 3 mg, Cycle 1 Day 15, DL 2, MD 3 mg
[4] = 6 mg, Cycle 1 Day 15, DL 3, MD 6 mg
[5] = 8 mg, Cycle 1 Day 1, DL 1, LD 8 mg
[6] = 10 mg, First dose (PK run-in), DL 1, 10 mg
[7] = 12 mg, Cycle 1 Day 15, DL 4, MD 12 mg
[8] = 16 mg, Cycle 1 Day 1, DL 2, LD 16 mg
[9] = 20 mg, First dose (PK run-in), DL 2, 20 mg
[10] = 24 mg, Cycle 1 Day 15, DL 5, MD 24 mg
[11] = 29 mg, Cycle 1 Day 1, DL 3, LD 29 mg
[12] = 36 mg, First dose (PK run-in), DL 3, 36 mg
[13] = 48 mg, Cycle 1 Day 15, DL 6, MD 48 mg
[14] = 58 mg, Cycle 1 Day 1, DL 4, LD 58 mg
[15] = 67 mg, Cycle 1 Day 15, DL 7, MD 67 mg
[16] = 67 mg, Cycle 1 Day 15, DL 7.1, MD 67 mg
[17] = 72 mg, First dose (PK run-in), DL 4, 72 mg
[18] = 115 mg, Cycle 1 Day 1, DL 5, LD 115 mg
[19] = 144 mg, First dose (PK run-in), DL 5, 144 mg
[20] = 230 mg, Cycle 1 Day 1, DL 6, LD 230 mg
[21] = 288 mg, Cycle 1 Day 1, DL 7.1, LD 288 mg as three doses
[22] = 288 mg, First dose (PK run-in), DL 6, 288 mg
[23] = 322 mg, Cycle 1 Day 1, DL 7, LD 322 mg
[24] = 403 mg, First dose (PK run-in), DL 7, 403 mg

SMILES: Cn1c(Nc2ccc(C(F)(F)F)cc2)nc2cc(Oc3ccnc(-c4ncc(C(F)(F)F)[nH]4)c3)ccc21 [RAF265]
- Tlast, Median ([1]; Cycle 1 Day 1, DL 1, LD 8 mg): 25 h
- Tlast, Median ([1]; Cycle 1 Day 1, DL 2, LD 16 mg): 22.9 h
- Tlast, Median ([1]; Cycle 1 Day 1, DL 3, LD 29 mg): 23.8 h
- Tlast, Median ([1]; Cycle 1 Day 1, DL 4, LD 58 mg): 24.4 h
- Tlast, Median ([1]; Cycle 1 Day 1, DL 5, LD 115 mg): 24 h
- Tlast, Median ([1]; Cycle 1 Day 1, DL 6, LD 230 mg): 24.1 h
- Tlast, Median ([1]; Cycle 1 Day 1, DL 7, LD 322 mg): 24 h
- Tlast, Median ([1]; Cycle 1 Day 1, DL 7.1, LD 288 mg as three doses): 23.8 h
- Tlast, Median ([1]; Cycle 1 Day 15, DL 1, MD 2 mg): 25.3 h
- Tlast, Median ([1]; Cycle 1 Day 15, DL 2, MD 3 mg): 22.5 h
- Tlast, Median ([1]; Cycle 1 Day 15, DL 3, MD 6 mg): 24.1 h
- Tlast, Median ([1]; Cycle 1 Day 15, DL 4, MD 12 mg): 24 h
- Tlast, Median ([1]; Cycle 1 Day 15, DL 5, MD 24 mg): 24 h
- Tlast, Median ([1]; Cycle 1 Day 15, DL 6, MD 48 mg): 23.7 h
- Tlast, Median ([1]; Cycle 1 Day 15, DL 7, MD 67 mg): 23.4 h
- Tlast, Median ([1]; Cycle 1 Day 15, DL 7.1, MD 67 mg): 23.8 h
- Tlast, Median ([1]; First dose (PK run-in), DL 1, 10 mg): 168 h
- Tlast, Median ([1]; First dose (PK run-in), DL 2, 20 mg): 168 h
- Tlast, Median ([1]; First dose (PK run-in), DL 3, 36 mg): 168 h
- Tlast, Median ([1]; First dose (PK run-in), DL 4, 72 mg): 167 h
- Tlast, Median ([1]; First dose (PK run-in), DL 5, 144 mg): 167 h
- Tlast, Median ([1]; First dose (PK run-in), DL 6, 288 mg): 167 h
- Tlast, Median ([1]; First dose (PK run-in), DL 7, 403 mg): 168 h
- Cmin, Mean (SD) ([1]; DL 1, MD 2 mg): 1.23 (0.22) ug/mL
- Cmin, Mean (SD) ([1]; DL 2, MD 3 mg): 1.51 (0.82) ug/mL
- Cmin, Mean (SD) ([1]; DL 3, MD 6 mg): 1.82 (0.28) ug/mL
- Cmin, Mean (SD) ([1]; DL 4, MD 12 mg): 4.31 (1.22) ug/mL
- Cmin, Mean (SD) ([1]; DL 5, MD 24 mg): 7.31 (1.99) ug/mL
- Cmin, Mean (SD) ([1]; DL 6, MD 48 mg): 13.1 (5.57) ug/mL
- Cmin, Mean (SD) ([1]; DL 7, MD 67 mg): 21.8 (3.76) ug/mL
- Cmin, Mean (SD) ([1]; DL 7.1, MD 67 mg): 15.5 (7.47) ug/mL
- dose dependence of mean Cmax and AUC ([1]; across dose levels): increased nearly proportionally with dose
- AUC(0-t) [1, 2]: 2670 ng·h/mL
- Cmax [1, 2]: 130 ng/mL
- Tmax [1, 2]: 3 h
- AUC(0-t) [1, 3]: 2300 ng·h/mL
- Cmax [1, 3]: 120 ng/mL
- Tmax [1, 3]: 3.07 h
- AUC(0-t) [1, 4]: 4150 ng·h/mL
- Cmax [1, 4]: 200 ng/mL
- Tmax [1, 4]: 2.52 h
- AUC(0-t) [1, 5]: 2080 ng·h/mL
- Cmax [1, 5]: 140 ng/mL
- Tmax [1, 5]: 4 h
- AUC(0-t) [1, 6]: 6200 ng·h/mL
- Cmax [1, 6]: 140 ng/mL
- half-life ([1]; 10 mg, First dose (PK run-in), DL 1, 10 mg, read-out: T1/2, Median (converted)): 287 h
- Tmax [1, 6]: 3 h
- AUC(0-t) [1, 7]: 8590 ng·h/mL
- Cmax [1, 7]: 420 ng/mL
- Tmax [1, 7]: 5.13 h
- AUC(0-t) [1, 8]: 2650 ng·h/mL
- Cmax [1, 8]: 170 ng/mL
- Tmax [1, 8]: 3 h
- AUC(0-t) [1, 9]: 8770 ng·h/mL
- Cmax [1, 9]: 150 ng/mL
- half-life ([1]; 20 mg, First dose (PK run-in), DL 2, 20 mg, read-out: T1/2, Median (converted)): 209 h
- Tmax [1, 9]: 2 h
- AUC(0-t) [1, 10]: 16100 ng·h/mL
- Cmax [1, 10]: 850 ng/mL
- Tmax [1, 10]: 2.75 h
- AUC(0-t) [1, 11]: 3930 ng·h/mL
- Cmax [1, 11]: 276 ng/mL
- Tmax [1, 11]: 3.53 h
- AUC(0-t) [1, 12]: 12100 ng·h/mL
- Cmax [1, 12]: 260 ng/mL
- half-life ([1]; 36 mg, First dose (PK run-in), DL 3, 36 mg, read-out: T1/2, Median (converted)): 127 h
- Tmax [1, 12]: 2.52 h
- AUC(0-t) [1, 13]: 28500 ng·h/mL
- Cmax [1, 13]: 1650 ng/mL
- Tmax [1, 13]: 3.93 h
- AUC(0-t) [1, 14]: 7280 ng·h/mL
- Cmax [1, 14]: 500 ng/mL
- Tmax [1, 14]: 3 h
- AUC(0-t) [1, 15]: 46800 ng·h/mL
- Cmax [1, 15]: 2650 ng/mL
- Tmax [1, 15]: 4 h
- AUC(0-t) [1, 16]: 35400 ng·h/mL
- Cmax [1, 16]: 1830 ng/mL
- Tmax [1, 16]: 3 h
- AUC(0-t) [1, 17]: 22600 ng·h/mL
- Cmax [1, 17]: 540 ng/mL
- half-life ([1]; 72 mg, First dose (PK run-in), DL 4, 72 mg, read-out: T1/2, Median (converted)): 174 h
- Tmax [1, 17]: 2.01 h
- AUC(0-t) [1, 18]: 15700 ng·h/mL
- Cmax [1, 18]: 1070 ng/mL
- Tmax [1, 18]: 2 h
- AUC(0-t) [1, 19]: 51800 ng·h/mL
- Cmax [1, 19]: 1060 ng/mL
- half-life ([1]; 144 mg, First dose (PK run-in), DL 5, 144 mg, read-out: T1/2, Median (converted)): 182 h
- Tmax [1, 19]: 2.15 h
- AUC(0-t) [1, 20]: 28100 ng·h/mL
- Cmax [1, 20]: 2250 ng/mL
- Tmax [1, 20]: 2.58 h
- AUC(0-t) [1, 21]: 18400 ng·h/mL
- Cmax [1, 21]: 1130 ng/mL
- Tmax [1, 21]: 22.3 h
- AUC(0-t) [1, 22]: 99800 ng·h/mL
- Cmax [1, 22]: 2310 ng/mL
- half-life ([1]; 288 mg, First dose (PK run-in), DL 6, 288 mg, read-out: T1/2, Median (converted)): 183 h
- Tmax [1, 22]: 3 h
- AUC(0-t) [1, 23]: 39000 ng·h/mL
- Cmax [1, 23]: 2720 ng/mL
- Tmax [1, 23]: 3 h
- AUC(0-t) [1, 24]: 137000 ng·h/mL
- Cmax [1, 24]: 2680 ng/mL
- half-life ([1]; 403 mg, First dose (PK run-in), DL 7, 403 mg, read-out: T1/2, Median (converted)): 294 h
- Tmax [1, 24]: 3 h
- half-life ([1]; patients, read-out: half-life (converted)): ~192 h
- half-life ([1]; patients, read-out: serum half-life (converted)): ~200 h
- MITF % change vs pretreatment, Mean(SD) (MITF; All patients, n 21): +197.3(856.9) %
- MITF % change vs pretreatment, Median (MITF; All patients, n 21): -13.2%
- MITF % change vs pretreatment, Mean(SD) (MITF; DL 5, n 2): +11.8 (23.7) %
- MITF % change vs pretreatment, Median (MITF; DL 5, n 2): +11.8%
- MITF % change vs pretreatment, Mean(SD) (MITF; DL 6, n 6): +20.1 (111.3) %
- MITF % change vs pretreatment, Median (MITF; DL 6, n 6): -6.60%
- MITF % change vs pretreatment, Mean(SD) (MITF; DLs 1 - 4, n 9): +400.6(1312.5) %
- MITF % change vs pretreatment, Median (MITF; DLs 1 - 4, n 9): -27.3%
- MITF % change vs pretreatment, Mean(SD) (MITF; DLs 7 and 7.1, n 4): +98.6 (239.7) %
- MITF % change vs pretreatment, Median (MITF; DLs 7 and 7.1, n 4): 0%
